Results from US4006237A, “Tetrahydrocarbostyril derivatives for the prophylaxis of asthma, hayfever and rhinitis” (Beecham Group Limited, priority 1973, dated 1977).

Test system: rat PCA response
Assay: Rat Passive Cutaneous Anaphylaxis (PCA) test
Format: in vivo, rat (male Wistar serum donors; Wistar test rats)
Protocol: Some of the substituted 4-hydroxy-3-nitro-α-pyridones prepared in the previous examples were submitted for biological testing. The test system was the Rat Passive Cutaneous Anaphylaxis (PCA) test described below in (ii).
i. Serum containing heat labile homocytotropic antibody was raised in rats by a method similar to that used by Mota. (I. Mota Immunology 1964, 7, 681).
Male Wistar rats of 250- 300g, were injected intraperitoneally with 0.5ml of Bordatella pertussis vaccine (containing 4 × 10^10 dead organism per ml) and subcutaneously with 0.5ml of an emulsion of 100mg of ovalbumin in 2ml of saline and 3ml of incomplete Freunds' adjuvant. Rats were bled by cardiac puncture on day 18, the blood was pooled and separated and serum stored at -20° C and thawed only once before use.
ii. The P.C.A. test was similar to that described by Ovary and Bier (A. Ovary and O. E. Bier, Proc. Soc. Exp. Biol.Med.1952, 81, 584) and Goose and Blair (J. Goose and A. M. J. N. Blair, Immunology 1969, 16, 769).
0.1ml. of each six twofold serial dilutions of the serum in 0.9% saline were injected intradermally into separate sites on the shaved dorsal surface of 250-350 g Wistar rats. 72 hours later the animals were challenged by i.v. injection of 0.3ml of 1% ovalbumin mixed with 0.1ml of a 5% solution of pontamine sky blue dye both in isotonic saline buffered with pH 7.2 Sorenson buffer (P.B.S.). The rats were killed after 20 minutes and the diameter of the blue wheals at the antibody injection sites were measured. The starting dilution of the serum was adjusted so that there was no response, after challenge, at the site of injection of the highest dilution and a maximum response at the lowest dilution. Typically, six twofold serial dilutions of the serum from 1/4 to 1/128 were used.
Compounds were tested for their ability to reduce the diameter of the wheals at the injection sites of dilutions of antibody which on all the controls have less than maximum response. Amounts of the compounds were administered to rats each amount to a test group of six animals at a specified time prior to intravenous challenge with ovalbumin. The diameters of the blue wheals which developed on the test group of animals were compared with those on a control group of six animals treated in the same way as the test group, but which had not received the compound under test.
% Inhibition of P.C.A. = 100 (1 - (a/b))
a = The mean of the sum of the diameters of the wheels produced in the test group of animals at those antibody sites where all the control group of animals gave less than maximum response.
b = The mean of the sum of diameters of the wheals produced in the control group of animals at those antibody sites where all the animals in the group gave less than the maximum response.
The compounds were administered either as a solution of the free nitro compound or as a solution or suspension in 1% methyl cellulose of the sodium salt.

[1] = time 60 mins prior to challenge
[2] = time 30 mins prior to challenge
[3] = time 10 mins prior to challenge

Row | SMILES | inhibition in vivo at 25 mg/kg (time 0 mins prior to challenge) | inhibition in vivo at 25 mg/kg [1] | inhibition in vivo at 100 mg/kg (time 0 mins prior to challenge) | inhibition in vivo at 100 mg/kg [1] | inhibition in vivo at 25 mg/kg [2] | inhibition in vivo at 100 mg/kg [2] | inhibition in vivo at 25 mg/kg [3] | inhibition in vivo at 100 mg/kg [3]
1 | O=c1[nH]c2c(c(O)c1[N+](=O)[O-])CCCCC2 [Example 4, 5,6-cycloheptenyl-4-hydroxy-3-nitro-α-pyridone] | -10% | 1% | -3% | 27% | – | – | – | –
2 | CC1CCc2c([nH]c(=O)c([N+](=O)[O-])c2O)C1 (centres unmarked) [Example 2, 4-Hydroxy-7-methyl-3-nitro-5,6,7,8-tetrahydrocarbostyril] | 36% | – | 76% | – | 49% | 40% | – | –
3 | O=c1[nH]c2c(c(O)c1[N+](=O)[O-])CCC2 [Example 3, 5,6-Cyclopenteno-4-hydroxy-3-nitro-α-pyridone] | 10% | – | 28% | – | -20% | 6% | – | –
4 | CC1CCc2[nH]c(=O)c([N+](=O)[O-])c(O)c2C1 (centres unmarked) [Example 6, 4-Hydroxy-6-methyl-3-nitro-5,6,7,8-tetrahydrocarbostyril] | 1% | 15% | 24% | 37% | – | – | – | –
5 | O=c1[nH]c2c(c(O)c1[N+](=O)[O-])CCCC2 [Example 1, 4-Hydroxy-3-nitro-5,6,7,8-tetrahydrocarbostyril] | 16% | – | 70% | – | 15% | 20% | – | –
6 | CC(C)n1c2c(c(O)c([N+](=O)[O-])c1=O)CCCC2 [Example 10, 4-Hydroxy-1-isopropyl-3-nitro-5,6,7,8-tetrahydrocarbostyril] | 5% | – | 8% | – | 0% | 16% | – | –
7 | CCCn1c2c(c(O)c([N+](=O)[O-])c1=O)CCCC2 [Example 9, 4-Hydroxy-3-nitro-1-n-propyl-5,6,7,8-tetrahydrocarbostyril] | 51% | – | 18% | – | 25% | 69% | – | –
8 | CCn1c2c(c(O)c([N+](=O)[O-])c1=O)CCCC2 [Example 8, 1-Ethyl-4-hydroxy-3-nitro-5,6,7,8-tetrahydrocarbostyril] | -5% | – | 12% | – | 14% | 75% | – | –
9 | CC1Cc2[nH]c(=O)c([N+](=O)[O-])c(O)c2C(C)C1 (centres unmarked) [Example 5, 5,7-dimethyl-4-hydroxy-3-nitro-5,6,7,8-tetrahydrocarbostyril] | 27% | – | 72% | – | 14% | 42% | – | –
10 | CCn1c2c(c(O)c([N+](=O)[O-])c1=O)CCC(C)C2 (centres unmarked) [Example 11, 1-Ethyl-4-hydroxy-7-methyl-3-nitro-5,6,7,8-tetrahydrocarbostyril] | 8% | – | 31% | – | 38% | 57% | – | –
11 | O=c1[nH]c2c(c(O)c1[N+](=O)[O-])CCCCCC2 [Example 7, 5,6-cyclooctenyl-4-hydroxy-3-nitro-α-pyridone] | – | – | – | – | 15% | 37% | 17% | 59%
